Source: US20260259169A1, “BETA-LACTAMASE SUBSTRATE COMPOUNDS AND ELECTROCHEMICAL DETECTION METHODS USING THEM” (priority 2023, published 2026)
Like-named read-outs stand apart in the source and are kept apart here.

Key:
KPC = KPC (Klebsiella pneumoniae, UniProt Q9F663); test: Amperometric measurement of oxidation current with KPC in TPTZ buffer; type: biochemical; settings: for detection of the beta-lactamases (oxidation current): KPC concentrations detected: succinate buffer pH 5.5, KPC 239.4, 59.85, 9.975 and 4.985 ng/ml; for detection of the beta-lactamases (oxidation current): KPC concentrations detected / detection of the beta-lactamase concentration of 9.975 ng/mL / detection of the lowest tested concentration of KPC / detection of the highest concentration of KPC: 30 minutes at 37° C.; for detection of the beta-lactamase concentration of 9.975 ng/mL: KPC 9.975 ng/mL; for detection of the lowest tested concentration of KPC / detection of the highest concentration of KPC: 6.0 mM substrate; for detection of the lowest tested concentration of KPC: KPC 59.85 ng/ml; for detection of the highest concentration of KPC: KPC 239.4 ng/ml
Method: A medium comprising 1.2 mM of substrate in a succinate buffer of pH 5.5 was prepared for each of the 8 beta-lactamase substrate compounds (7 inventive ones and the HMRZ-86 reference one).
4 different samples to be analyzed were prepared, each comprising KPC as beta-lactamase in a standard 2,4,6-tri-2-pyridinyl-1,3,5-triazine (TPTZ) buffer but in different concentrations: 239.4, 59.85, 9.975 and 4.985 ng/ml (ng of KPC per mL of TPTZ buffer). The two first concentrations of KPC aim to determine the capacity of the derivative to detect the presence of beta-lactamase whereas the two lowest concentrations aim to address the limit of detection.
Each of the […] (in other words 32 combinations) and incubated for 30 minutes at 37° C. Next, an amperometric measurement was performed on all 32 of the incubated mediums, and the oxidation current was determined. The device used was a Metrohm Dropsens and the electrodes were Metrohm Dropsens SCPE 110 electrodes. The oxidation current is the maximum current value measured between 0.1 V and 0.5 V vs. Ag/AgCl.
To test the impact of the concentration of the beta-lactamase substrate compound on the possibility to detect beta-lactamases, a further medium comprising 2.4 mM of the beta-lactamase substrate compound with R being 2-nitro-4-cyanophenyl was prepared. […] The same four beta-lactamase concentrations as in Example 1 were tested (i.e. the same samples). The incubation and measurement were performed as in Example 1.
A medium comprising 6.0 mM of each substrate in a succinate buffer of pH 5.5 was prepared. 2 different samples to be analyzed were prepared, each comprising KPC as beta-lactamase type in a standard 2,4,6-tri-2-pyridinyl-1,3,5-triazine (TPTZ) buffer, but in different concentrations: 239.4 ng/ml and 59.85 ng/ml, respectively (ng of KPC per mL of TPTZ buffer). Each of the […] was added to each of the 2 mediums (in other words 6 combinations) and incubated for 30 minutes at 37° C. Next, an amperometric measurement was performed on all 6 of the incubated mediums, and the oxidation current was determined. The equipment used was the same as that of Example 1.

[1] = test system: bacteria strains that produce KPC/OXA-48; test: Amperometric detection in blood culture; type: cell-based; settings: 2.4 mM versus HMRZ-86 1.2 mM
Method: (§1) The possibility of the beta-lactamase substrate compounds to detect bacteria strains producing different beta-lactamases was tested for the reference HMRZ-86 of example 1 (at 1.2 mM) and the beta-lactamase substrate compound with R being 2-nitro-4-cyano of Example 1 (at 2.4 mM). […] Consequently, amperometric voltammetry of the negative control with ATCC should give an oxidation current of 0 nA for the measurement to be valid.

[2] = test system: bacteria strains that produce VIM type; test: Amperometric detection in blood culture; type: cell-based; settings: 2.4 mM versus HMRZ-86 1.2 mM
Method: as §1
The beta-lactamase with group β being CF3 (6.0 mM), as well as the reference HMRZ-86 (1.2 mM) were also tested with blood cultures comprising bacteria strains producing the carbapenemase KPC type, the metallo-beta-lactamase VIM type and the metallo-beta-lactamase NDM type, as well as a blood culture comprising no bacteria strains producing beta-lactamases (negative control ATCC).

[3] = NMR stability study in relation to a 22 mM succinate buffer reference; type: physicochemical
Method: (§2) The stability of the beta-lactamase substrate compounds over time at different temperatures was tested the reference HMRZ-86 of example 1 (at 1.2 mM) and the beta-lactamase substrate compound with R being 2-nitro-4-cyano of Example 1 (at 2.4 mM).
The stability of both beta-lactamase substrate compounds was also tested in relation to a 22 mM succinate buffer reference. […] Contrary to the dimethylformamide (DMF) reference, the degradation in relation to the succinate buffer was similar for both substrate compounds, with the first degradation starting after 2 weeks at both temperatures.

[4] = NMR stability study in relation to a dimethylformamide (DMF) reference; type: physicochemical
Method: More particularly, when the degradation is determined by means of NMR measurements, a first sample comprising the beta-lactamase substrate compound according to the present disclosure and a second sample comprising the reference, e.g. DMF, are heated or cooled to a predefined temperature, after which the NMR measurement is performed on both samples (measurement at time=0). The same measurement is repeated on the samples after a predefined time (time=x), while their temperature is kept constant at the predefined temperature from time=0 to time=x. The difference of the integration of NMR measurement signals of both samples is determined by comparing between time=0 and time=x, thereby allowing to define the degree (percentage) of degradation of the beta-lactamase substrate compound at time=x.
as §2
The stability was tested by a NMR stability study. The degradation was measured by measuring the evolution of the integration of NMR measurement signals of the molecule in relation to a dimethylformamide (DMF) reference. The stability of the beta-lactamase substrate compound is expressed by the percentage of degradation in function of time.
The stability of all 3 beta-lactamase substrate compounds (R being 4-cyanophenyl, group β being H, CH3 and CF3, respectively), as well as the beta-lactamase having the same group R and a group β according to formula II was tested at 20° C. in DMF as reference.

OXA-40 = test: Amperometric detection of beta-lactamase type producing bacteria strains; type: cell-based; settings: 6.0 mM substrate, HMRZ-86 1.2 mM; qualitative
Method: (§3) The possibility to detect different beta-lactamase type producing bacteria strains was also tested. As reference, a reference medium comprising 1.2 mM beta-lactamase substrate compound HMRZ-86 was prepared as well.

OXA-58 = test: as above; type: cell-based; settings: 6.0 mM substrate, HMRZ-86 1.2 mM; qualitative
Method: as §3

CTXM = test: as above; type: cell-based; settings: 6.0 mM substrate, HMRZ-86 1.2 mM; qualitative
Method: as §3

OXA-48 = test: as above; type: cell-based; settings: 6.0 mM substrate, HMRZ-86 1.2 mM; qualitative
Method: as §3

For `CC(C)(ON=C(C(=O)NC1C(=O)N2C(C(=O)O)=C(C=Cc3ccc(C#N)cc3C#N)CSC12)c1csc(N)n1)C(=O)O` (stereo not drawn) [2,4-dicyano], the “detection of the beta-lactamases (oxidation current): KPC concentrations detected” value (KPC; 1.2 mM substrate) was “only the 2 highest concentrations were detected”.

In the case of `CC(C)(ON=C(C(=O)NC1C(=O)N2C(C(=O)O)=C(C=Cc3ccc(C#N)cc3[N+](=O)[O-])CSC12)c1csc(N)n1)C(=O)O` (stereo not drawn) [2-nitro-4-cyano], the “oxidation current compared with HMRZ-86” value [1] is reported as “significantly higher”, the “detection of the beta-lactamases (oxidation current): KPC concentrations detected” value (KPC; 1.2 mM substrate) is reported as “all 4 concentrations” and the “oxidation current compared with 1.2 mM HMRZ-86 reference” value (KPC; 2.4 mM substrate, 4 KPC concentrations) is reported as “in line with these of the 1.2 mM HMRZ-86 reference”. The “oxidation current compared with 1.2 mM HMRZ-86 reference, 2 highest beta-lactamase concentrations” value (KPC; 2.4 mM substrate, KPC 239.4 and 59.85 ng/ml) was “higher than the reference”, the “oxidation current on increasing the substrate concentration” value (KPC; 2.4 mM versus 1.2 mM substrate, 4 KPC concentrations) was “significantly increases the oxidation current” and the “oxidation current compared with HMRZ-86” value [2] was “significantly higher”. For the same molecule, the “time at which the first degradation starts” value ([3]; 4° C.) was 2 weeks and the “time at which the first degradation starts” value ([3]; 20° C.) was 2 weeks.

In the case of `CC(C)(ON=C(C(=O)NC1C(=O)N2C(C(=O)O)=C(C=Cc3ccc([N+](=O)[O-])c([N+](=O)[O-])c3)CSC12)c1csc(N)n1)C(=O)O` (stereo not drawn) [3,4-dinitrophenyl], the “detection of the beta-lactamase concentration of 9.975 ng/mL” value (KPC; 1.2 mM substrate) is reported as “could detect”.

With `CC(C)(ON=C(C(=O)NC1C(=O)N2C(C(=O)O)=C(C=Cc3cc([N+](=O)[O-])cc([N+](=O)[O-])c3)CSC12)c1csc(N)n1)C(=O)O` (stereo not drawn) [3,5-dinitrophenyl] the “detection of the beta-lactamase concentration of 9.975 ng/mL” value (KPC; 1.2 mM substrate) was “this was not the case”.

For `CC(C)(ON=C(C(=O)NC1C(=O)N2C(C(=O)O)=C(C=Cc3ccc(C#N)cc3)CSC12)c1csc(N)n1)C(=O)O` (stereo not drawn) [4-cyanophenyl], the “oxidation current, compared among R groups with a single moiety at the para-position” value (KPC; 1.2 mM substrate, 4 KPC concentrations, FIG. 2) was “highest oxidation currents” and the degradation ([4]; 20° C., up to 26 weeks, DMF reference) was “no signs of degradation”.

With `CC(=O)NC1C(=O)N2C(C(=O)O)=C(C=Cc3ccc(C#N)cc3)CSC12` (stereo not drawn) [CH3] the “detection of the lowest tested concentration of KPC” value (KPC) was “only the “H” and “CF3” groups are capable to detect the lowest tested concentration”, the “detection of the highest concentration of KPC” value (KPC) was “capable to detect” and the “detection (oxidation current)” value (OXA-40) was “detect OXA-48 type only”. For the same molecule, the “detection (oxidation current)” value (OXA-58) was “detect OXA-48 type only”, the “detection (oxidation current)” value (CTXM) was “detect OXA-48 type only” and the “detection (oxidation current)” value (OXA-48) was “detect OXA-48 type only”. For the same molecule, the “time of first signs of degradation” value ([4]; 20° C., DMF reference, up to 26 weeks) was 1 weeks.

In the case of `N#Cc1ccc(C=CC2=C(C(=O)O)N3C(=O)C(NC=O)C3SC2)cc1` (stereo not drawn) [H], the “detection of the lowest tested concentration of KPC” value (KPC) is reported as “capable to detect”, the “detection of the highest concentration of KPC” value (KPC) is reported as “capable to detect” and the “detection (oxidation current)” value (OXA-40) is reported as “capable of detecting”. The “detection (oxidation current)” value (OXA-58) was “capable of detecting”, the “detection (oxidation current)” value (CTXM) was “capable of detecting” and the “detection (oxidation current)” value (OXA-48) was “capable of detecting”. The “time of first signs of degradation” value [4] was 13 weeks.
